Where “and” joins values, the source holds several entries; their conditions need not be identical. Identical values can stand only once.
Test system: COR L88 complex tumor spheroid viability
Assay: Anticancer human tumor COR L88 cell line growth inhibition;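 also: compound exposure lasted 7 days before viability readout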;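 as to viability, T/C: percent of DMSO vehicle-treated spheroids = 100%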
Settings: for viability, T/C: stronger effect = lower value
How it was run: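 Complex tumor spheroids combined malignant cells with endothelial cells and mesenchymal stem cells. DNA-damaging drugs and DNA repair inhibitors were tested alone and in combination, at half-log dilutions down from clinical Cmax (top 10 microM if Cmax unknown), 0.25% DMSO final.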

[1] = curve of first compound, second compound 1 µM
[2] = curve of first compound, second compound 3.16 µM
[3] = curve of first compound, second compound 10 µM
[4] = curve of first compound, second compound 31.6 µM
[5] = curve of first compound, second compound 100 µM
[6] = second compound 1 µM, first compound 0.0316 µM
[7] = second compound 1 µM, first compound 0.1 µM
[8] = second compound 1 µM, first compound 0.316 µM
[9] = second compound 1 µM, first compound 1 µM
[10] = second compound 1 µM, first compound 3.16 µM
[11] = second compound 1 µM, first compound 10 µM
[12] = second compound 3.16 µM, first compound 0.0316 µM
[13] = second compound 3.16 µM, first compound 0.1 µM
[14] = second compound 3.16 µM, first compound 0.316 µM
[15] = second compound 3.16 µM, first compound 1 µM
[16] = second compound 3.16 µM, first compound 3.16 µM
[17] = second compound 3.16 µM, first compound 10 µM
[18] = second compound 10 µM, first compound 0.0316 µM
[19] = second compound 10 µM, first compound 0.1 µM
[20] = second compound 10 µM, first compound 0.316 µM
[21] = second compound 10 µM, first compound 1 µM
[22] = second compound 10 µM, first compound 3.16 µM
[23] = second compound 10 µM, first compound 10 µM
[24] = second compound 31.6 µM, first compound 0.0316 µM
[25] = second compound 31.6 µM, first compound 0.1 µM
[26] = second compound 31.6 µM, first compound 0.316 µM
[27] = second compound 31.6 µM, first compound 1 µM
[28] = second compound 31.6 µM, first compound 3.16 µM
[29] = second compound 31.6 µM, first compound 10 µM
[30] = second compound 100 µM, first compound 0.0316 µM
[31] = second compound 100 µM, first compound 0.1 µM
[32] = second compound 100 µM, first compound 0.316 µM
[33] = second compound 100 µM, first compound 1 µM
[34] = second compound 100 µM, first compound 3.16 µM
[35] = second compound 100 µM, first compound 10 µM
[36] = curve of first compound, second compound 0.003 µM
[37] = second compound 0.003 µM, first compound 0.0949 µM
[38] = second compound 0.003 µM, first compound 0.3 µM
[39] = second compound 0.003 µM, first compound 0.949 µM
[40] = second compound 0.003 µM, first compound 3 µM

Structure (SMILES): CC(C)n1c(=O)n(C)c2cnc3cc(F)c(-c4ccc(OCCCN5CCCCC5)nc4)cc3c21 + Cn1nnc2c(C(N)=O)ncn2c1=O
- IC50 [1]: > 10 µM
- IC50 [2]: > 10 µM
- IC50 [3]: > 10 µM
- IC50 [4]: 6.87 µM
- IC50 [5]: 5.06 µM
- viability, T/C [6]: 104%
- viability, T/C [7]: 97.7%
- viability, T/C [8]: 98.9%
- viability, T/C [9]: 94.5%
- viability, T/C [10]: 80.7%
- viability, T/C [11]: 52.8%
- viability, T/C [12]: 96.2%
- viability, T/C [13]: 105%
- viability, T/C [14]: 98.2%
- viability, T/C [15]: 95.4%
- viability, T/C [16]: 80%
- viability, T/C [17]: 54.6%
- viability, T/C [18]: 96.2%
- viability, T/C [19]: 91.6%
- viability, T/C [20]: 94.5%
- viability, T/C [21]: 91.2%
- viability, T/C [22]: 76.1%
- viability, T/C [23]: 50.8%
- viability, T/C [24]: 87.1%
- viability, T/C [25]: 84.8%
- viability, T/C [26]: 87.5%
- viability, T/C [27]: 80.9%
- viability, T/C [28]: 67.4%
- viability, T/C [29]: 41.2%
- viability, T/C [30]: 72.5%
- viability, T/C [31]: 69%
- viability, T/C [32]: 74%
- viability, T/C [33]: 76%
- viability, T/C [34]: 56.9%
- viability, T/C [35]: 40.1%

Structure (SMILES): Cc1sc2c(c1C)C(c1ccc(Cl)cc1)=NC(CC(=O)Nc1ccc(O)cc1)c1nnc(C)n1-2 (centres undefined) + CC[C@@]1(O)C(=O)OCc2c1cc1n(c2=O)Cc2cc3c(CN(C)C)c(O)ccc3nc2-1
- IC50 [36]: 0.406 µM
- IC50 (curve of first compound, second compound 0.00949 µM): 0.441 µM
- IC50 (curve of first compound, second compound 0.03 µM): 0.531 µM
- IC50 (curve of first compound, second compound 0.0949 µM): 0.185 µM
- IC50 (curve of first compound, second compound 0.3 µM): 0.0709 µM
- viability, T/C (second compound 0.003 µM, first compound 0.00949 µM): 107%
- viability, T/C (second compound 0.003 µM, first compound 0.03 µM): 82.7%
- viability, T/C [37]: 100%
- viability, T/C [38]: 59.9%
- viability, T/C [39]: 23.6%
- viability, T/C [40]: 15.1%
- viability, T/C (second compound 0.00949 µM, first compound 0.00949 µM): 81.8%
- viability, T/C (second compound 0.00949 µM, first compound 0.03 µM): 92.6%
- viability, T/C (second compound 0.00949 µM, first compound 0.0949 µM): 104%
- viability, T/C (second compound 0.00949 µM, first compound 0.3 µM): 64.2%
- viability, T/C (second compound 0.00949 µM, first compound 0.949 µM): 23.7%
- viability, T/C (second compound 0.00949 µM, first compound 3 µM): 13.3%
- viability, T/C (second compound 0.03 µM, first compound 0.00949 µM): 71.2%
- viability, T/C (second compound 0.03 µM, first compound 0.03 µM): 88.7%
- viability, T/C (second compound 0.03 µM, first compound 0.0949 µM): 106%
- viability, T/C (second compound 0.03 µM, first compound 0.3 µM): 73%
- viability, T/C (second compound 0.03 µM, first compound 0.949 µM): 25.3%
- viability, T/C (second compound 0.03 µM, first compound 3 µM): 8.57%
- viability, T/C (second compound 0.0949 µM, first compound 0.00949 µM): 66.6%
- viability, T/C (second compound 0.0949 µM, first compound 0.03 µM): 76.2%
- viability, T/C (second compound 0.0949 µM, first compound 0.0949 µM): 85.2%
- viability, T/C (second compound 0.0949 µM, first compound 0.3 µM): 31.2%
- viability, T/C (second compound 0.0949 µM, first compound 0.949 µM): 7.66%
- viability, T/C (second compound 0.0949 µM, first compound 3 µM): 5.05%
- viability, T/C (second compound 0.3 µM, first compound 0.00949 µM): 53.1%
- viability, T/C (second compound 0.3 µM, first compound 0.03 µM): 60.9%
- viability, T/C (second compound 0.3 µM, first compound 0.0949 µM): 47.4%
- viability, T/C (second compound 0.3 µM, first compound 0.3 µM): 9.5%
- viability, T/C (second compound 0.3 µM, first compound 0.949 µM): 3.88%
- viability, T/C (second compound 0.3 µM, first compound 3 µM): 2.4%

Structure (SMILES): Cc1cc(C)c(CNC(=O)c2cc(-c3ccc(CN4CCOCC4)cc3)cc3c2cnn3C2CCCC2)c(=O)[nH]1 + Cn1nnc2c(C(N)=O)ncn2c1=O
- IC50 [1]: > 10 µM
- IC50 [2]: > 10 µM
- IC50 [3]: > 10 µM
- IC50 [4]: 8.54 µM
- IC50 [5]: 3.35 µM
- viability, T/C [6]: 102%
- viability, T/C [7]: 97%
- viability, T/C [8]: 93%
- viability, T/C [9]: 86.1%
- viability, T/C [10]: 76.8%
- viability, T/C [11]: 53.3%
- viability, T/C [12]: 101%
- viability, T/C [13]: 99.5%
- viability, T/C [14]: 88.5%
- viability, T/C [15]: 83.2%
- viability, T/C [16]: 72%
- viability, T/C [17]: 56.5%
- viability, T/C [18]: 90.7%
- viability, T/C [19]: 86.4%
- viability, T/C [20]: 88.5%
- viability, T/C [21]: 75.2%
- viability, T/C [22]: 69.8%
- viability, T/C [23]: 51.3%
- viability, T/C [24]: 86.7%
- viability, T/C [25]: 79.1%
- viability, T/C [26]: 78%
- viability, T/C [27]: 69%
- viability, T/C [28]: 56.1%
- viability, T/C [29]: 49.7%
- viability, T/C [30]: 68.7%
- viability, T/C [31]: 62.7%
- viability, T/C [32]: 63%
- viability, T/C [33]: 52.7%
- viability, T/C [34]: 49.1%
- viability, T/C [35]: 47%

Structure (SMILES): O=C(c1cc(Cc2n[nH]c(=O)c3ccccc23)ccc1F)N1CCN(C(=O)C2CC2)CC1 + COc1cc2c(cc1O)CCNC21CSC2c3c(OC(C)=O)c(C)c4c(c3C(COC1=O)N1C(O)C3Cc5cc(C)c(OC)c(O)c5C(C21)N3C)OCO4
- IC50 (curve of first compound, second compound 30 pM): 14.5 µM
- IC50 (curve of first compound, second compound 94.9 pM): 11.3 µM
- IC50 (curve of first compound, second compound 0.0003 µM): > 30 µM
- IC50 (curve of first compound, second compound 0.000949 µM): 0.683 µM
- IC50 [36]: < 0.0949 µM
- viability, T/C (second compound 30 pM, first compound 0.0949 µM): 93.6%
- viability, T/C (second compound 30 pM, first compound 0.3 µM): 107%
- viability, T/C (second compound 30 pM, first compound 0.949 µM): 95%
- viability, T/C (second compound 30 pM, first compound 3 µM): 81.7%
- viability, T/C (second compound 30 pM, first compound 9.49 µM): 54.6%
- viability, T/C (second compound 30 pM, first compound 30 µM): 42.4%
- viability, T/C (second compound 94.9 pM, first compound 0.0949 µM): 98.9%
- viability, T/C (second compound 94.9 pM, first compound 0.3 µM): 96.4%
- viability, T/C (second compound 94.9 pM, first compound 0.949 µM): 101%
- viability, T/C (second compound 94.9 pM, first compound 3 µM): 71.8%
- viability, T/C (second compound 94.9 pM, first compound 9.49 µM): 54.9%
- viability, T/C (second compound 94.9 pM, first compound 30 µM): 43%
- viability, T/C (second compound 0.0003 µM, first compound 0.0949 µM): 74.9%
- viability, T/C (second compound 0.0003 µM, first compound 0.3 µM): 63.4%
- viability, T/C (second compound 0.0003 µM, first compound 0.949 µM): 64.1%
- viability, T/C (second compound 0.0003 µM, first compound 3 µM): 60.6%
- viability, T/C (second compound 0.0003 µM, first compound 9.49 µM): 48.5%
- viability, T/C (second compound 0.0003 µM, first compound 30 µM): 56.8%
- viability, T/C (second compound 0.000949 µM, first compound 0.0949 µM): 57.2%
- viability, T/C (second compound 0.000949 µM, first compound 0.3 µM): 56.2%
- viability, T/C (second compound 0.000949 µM, first compound 0.949 µM): 42.6%
- viability, T/C (second compound 0.000949 µM, first compound 3 µM): 40.7%
- viability, T/C (second compound 0.000949 µM, first compound 9.49 µM): 13.7%
- viability, T/C (second compound 0.000949 µM, first compound 30 µM): 2.22%
- viability, T/C [37]: 1.02%
- viability, T/C [38]: 1.05%
- viability, T/C [39]: 0.95%
- viability, T/C [40]: 1.92%
- viability, T/C (second compound 0.003 µM, first compound 9.49 µM): 2.21%
- viability, T/C (second compound 0.003 µM, first compound 30 µM): 3.25%

Structure (SMILES): [2H]c1nc(C)nc([2H])c1-c1cc(NC[C@@H](C)c2cccc3c(C(=O)NC)ccnc23)ncn1
- viability, T/C (compound 0.0316 µM): 101% and 94.7% and 105%
- viability, T/C (compound 0.1 µM): 99.9% and 96.5% and 98.1%
- viability, T/C (compound 0.316 µM): 109% and 101% and 102%
- viability, T/C (compound 1 µM): 88.5% and 106% and 102%
- viability, T/C (compound 3.16 µM): 92.1% and 95.2% and 96.4%
- viability, T/C (compound 10 µM): 91.8% and 97.2% and 103%
- IC50 (curve of compound): > 10 µM

Structure (SMILES): COc1cc(C)[nH]c(=O)c1CN1CCc2c(Cl)cc(C(OC)C3COC3)c(Cl)c2C1=O (centres undefined)
- viability, T/C (compound 0.0316 µM): 109% and 91.5% and 89.8%
- viability, T/C (compound 0.1 µM): 100% and 89.6% and 97%
- viability, T/C (compound 0.316 µM): 95.5% and 80.1% and 98.1%
- viability, T/C (compound 1 µM): 89.2% and 76.7% and 91.4%
- viability, T/C (compound 3.16 µM): 96.1% and 84.8% and 85.8%
- viability, T/C (compound 10 µM): 92.2% and 75.5% and 90.1%
- IC50 (curve of compound): > 10 µM
